{"source": "patent US7319013B2", "about": "“Serine hydroxymethyltransferase as a target for herbicides” (BASF Aktiengesellschaft, priority 2002, dated 2008)", "origin": "cited, not measured here", "key": {"[1]": {"target": "T1, ovine SHMT (Ovis aries, UniProt P35623)", "T1 sequence (P35623 2-484 limits assumed)": "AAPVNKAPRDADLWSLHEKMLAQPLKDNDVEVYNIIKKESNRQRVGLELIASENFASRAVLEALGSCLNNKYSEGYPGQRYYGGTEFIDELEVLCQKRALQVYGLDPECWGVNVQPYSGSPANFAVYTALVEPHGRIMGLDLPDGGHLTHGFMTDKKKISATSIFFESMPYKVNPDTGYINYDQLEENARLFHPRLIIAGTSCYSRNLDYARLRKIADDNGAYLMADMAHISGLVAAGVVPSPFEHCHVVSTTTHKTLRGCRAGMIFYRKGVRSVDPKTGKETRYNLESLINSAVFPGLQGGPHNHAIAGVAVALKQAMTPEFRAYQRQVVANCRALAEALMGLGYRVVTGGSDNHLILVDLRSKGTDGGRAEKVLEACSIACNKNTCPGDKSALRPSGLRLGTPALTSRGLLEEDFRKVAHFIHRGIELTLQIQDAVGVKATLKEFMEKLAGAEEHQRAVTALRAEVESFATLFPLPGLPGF", "conditions": "micromolar concentrations"}, "[2]": {"system": "SHMT from Euglena gracilis", "conditions": "millimolar concentrations"}, "[3]": {"system": "SHMT from CHO cells"}, "[4]": {"system": "SHMT from CHO cells", "conditions": "by means of photo-linkage"}}}
{"smiles": "NOC[C@@H](N)C(=O)O", "note": "[O-amino-D-serine]", "values": [{"measurement": "inhibitory effect on SHMT", "setting": "[1]", "value": "have an inhibitory effect"}]}
{"smiles": "N[C@@H](CS)C(=O)O", "note": "[cystein]", "values": [{"measurement": "inhibition of SHMT", "setting": "[2]", "value": "can be inhibited"}]}
{"smiles": "NCC(=O)O", "note": "[glycin]", "values": [{"measurement": "inhibition of SHMT", "setting": "[2]", "value": "can be inhibited"}]}
{"smiles": "NC(Cn1ccc(=O)c(O)c1)C(=O)O", "note": "(stereo not drawn) [mimosine]", "values": [{"measurement": "inhibition of SHMT", "setting": "[3]", "value": "does not inhibit it"}, {"measurement": "binding to SHMT", "setting": "[4]", "value": "can be bound"}]}
{"smiles": "N[C@@H](CO)C(=O)O", "note": "[serine]", "values": [{"measurement": "inhibition of SHMT", "setting": "[2]", "value": "can be inhibited"}]}
